Source: PubChem BioAssay (NCI)
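Step 1: Grow cells in 96-well plates. Step 2: Expose to compound for 48 hours at 5 concentrations. Step 3: Interpolate endpoints linearly; if unreached, use highest concentration. TGI: concentration producing complete growth inhibition.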

Columns and labels:
Assay in all cases: NCI tumour cell line growth inhibition, 48 h
NCI-H226 lung = system: NCI-H226 lung
HCT-116 colon = system: HCT-116 colon
IGROV1 ovarian = system: IGROV1 ovarian
SF-539 CNS = system: SF-539 CNS
A549 NSCLC = system: A549 NSCLC
UO-31 renal = system: UO-31 renal
SF-268 CNS = system: SF-268 CNS
SK-MEL-2 melanoma = system: SK-MEL-2 melanoma
SNB-75 CNS = system: SNB-75 CNS
SF-295 CNS = system: SF-295 CNS
EKVX NSCLC = system: EKVX NSCLC
HS 578T breast = system: HS 578T breast
CCRF-CEM leukemia = system: CCRF-CEM leukemia
UACC-62 melanoma = system: UACC-62 melanoma
HCT-15 colon = system: HCT-15 colon
LOX IMVI melanoma = system: LOX IMVI melanoma
TK-10 renal = system: TK-10 renal
HCC-2998 colon = system: HCC-2998 colon
OVCAR-8 ovarian = system: OVCAR-8 ovarian
HL-60(TB) leukemia = system: HL-60(TB) leukemia
HT29 colon = system: HT29 colon
SN12C renal = system: SN12C renal
NCI/ADR-RES ovarian = system: NCI/ADR-RES ovarian
SW-620 colon = system: SW-620 colon
OVCAR-3 ovarian = system: OVCAR-3 ovarian
HOP-62 NSCLC = system: HOP-62 NSCLC
T-47D breast = system: T-47D breast
786-0 renal = system: 786-0 renal
DU-145 prostate = system: DU-145 prostate
KM12 colon = system: KM12 colon
SK-MEL-28 melanoma = system: SK-MEL-28 melanoma
NCI-H460 lung = system: NCI-H460 lung
CAKI-1 renal = system: CAKI-1 renal
MDA-N = system: MDA-N
SK-OV-3 ovarian = system: SK-OV-3 ovarian
NCI-H522 lung = system: NCI-H522 lung
ACHN renal = system: ACHN renal
M14 melanoma = system: M14 melanoma
MDA-MB-231 breast = system: MDA-MB-231 breast
HOP-92 NSCLC = system: HOP-92 NSCLC
MCF7 breast = system: MCF7 breast
MDA-MB-435 = system: MDA-MB-435
MALME-3M melanoma = system: MALME-3M melanoma
U251 CNS = system: U251 CNS
OVCAR-4 ovarian = system: OVCAR-4 ovarian
SK-MEL-5 melanoma = system: SK-MEL-5 melanoma
SNB-19 CNS = system: SNB-19 CNS
RXF 393 renal = system: RXF 393 renal
COLO 205 colon = system: COLO 205 colon
NCI-H23 lung = system: NCI-H23 lung
UACC-257 melanoma = system: UACC-257 melanoma
K-562 leukemia = system: K-562 leukemia
A498 renal = system: A498 renal
PC-3 prostate = system: PC-3 prostate
RPMI-8226 leukemia = system: RPMI-8226 leukemia
MOLT-4 leukemia = system: MOLT-4 leukemia

Measured: TGI

CC(=O)CC(O)(C(F)(F)Cl)C(F)(Cl)Cl (centres undefined)
not listed: RPMI-8226 leukemia | MOLT-4 leukemia
> 10 µM: all other assays above

COc1ccc(C(CC(=O)c2cccs2)C(=O)c2ccc3c(c2)OCO3)cc1 (centres undefined)
not listed: NCI-H226 lung | UO-31 renal | SK-MEL-2 melanoma | SF-295 CNS | HT29 colon | OVCAR-3 ovarian | 786-0 renal | NCI-H522 lung | HOP-92 NSCLC | SNB-19 CNS | RXF 393 renal
> 100 µM: all other assays above
